In PubChem BioAssay AID449750 (Broad Institute, 2010) one finds AC50 data, which are given here for 38 compounds.

Active and inactive are the calls of the source. No rule for the calls is given here. A value given as a limit tells only on which side of the number the result lay.

The nature of this assay: non-covalent RecA intein splicing inhibitors, dose response, biochemical, cell-free, fluorescence, secondary screen (AID 449750).

As usually defined, the AC50 is the concentration giving half of the maximal activity seen. Turning to `O=C(Cc1cc(=O)[nH][nH]1)N/N=C/c1c(F)cccc1Cl`, the AC50 was 30.7 µM.
Take `COc1ccc(C(c2c(C)[nH]n(-c3ccccc3)c2=O)c2c(C)[nH]n(-c3ccccc3)c2=O)cc1OC`: the AC50 was 1.38 µM.
In the case of `CN1N=C(C(C)(C)C)CC1=O` it was > 38 µM (inactive); in that of `COc1ccc(C(=O)n2nnc3ccccc32)cc1Br`, > 38 µM (inactive).
In the case of `COc1ccc(-c2cc(=O)[nH][nH]2)cc1` it was 8.39 µM; in that of `CN(Cc1ccc(Cl)cc1)C(=O)CCl`, 10.2 µM; in that of `CN(C1=C(NC(=O)c2ccc(Cl)cc2)C(=O)c2ccccc2C1=O)c1ccccc1`, 15 µM.
Regarding `N#Cc1nccnc1S(=O)(=O)c1cccs1`, the AC50 is > 38 µM (inactive).
With `COc1ccc(-n2c(C)cc(C(=O)CCl)c2C)cc1`, the AC50 was 13.6 µM.
As for `COc1ccccc1/C=C1/C(=O)N(c2ccccc2)N=C1C`, the AC50 is > 38 µM (inactive).
The figure for `C=CCN1C(=O)NC(c2ccc(OC)cc2)(C(F)(F)F)S/C1=C(\C#N)c1nnc(N2CCOCC2)n1-c1ccccc1` (stereo not drawn) is 32.4 µM; for `COC(=O)C1=C(C)NC(=S)NC1c1ccc(OC(=O)c2ccco2)cc1` (stereo not drawn) it is > 38 µM (inactive).
The figure for `COCc1[nH]nc2c1C(c1ccc(OC)cc1)C(C#N)=C(N)O2` (stereo not drawn) is 32.2 µM.
In the case of `COc1ccc(/C=C2/C(=O)N(c3ccccc3)N=C2C)c(OC)c1` it was 18.5 µM; in that of `Cc1ccc2c(c1)Oc1ccc(NC(=O)CCl)cc1C(=O)N2`, 6.94 µM.
With `COc1ccc(C(=O)Nc2ccncc2)cc1[N+](=O)[O-]`, the AC50 was > 38 µM (inactive).
The figure for `CC1=Nc2cccc3cccc(c23)N1C` is > 38 µM (inactive); for `CCCCCCCCCCOC(=O)Cn1c(COc2ccc(C)cc2)[n+](C)c2ccccc21` it is 8.88 µM; for `O=C(CCl)Nc1cccc(CP(=O)(c2ccccc2)c2ccccc2)c1` it is 17.8 µM.
Take `COc1ccc(-c2oc(NC(=O)CCl)c(C#N)c2-c2ccc(OC)cc2)cc1`: the AC50 is 1.55 µM.
For the compound `Cc1ccc(N2C(=O)C(Cl)=C(N3CCOCC3)C2=O)cc1Cl`, the AC50 is > 38 µM (inactive).
In the case of `COc1cc(/C=N/NC(=O)CC2(C)OCCCO2)ccc1OCc1ccccc1` it was > 38 µM (inactive); in that of `CCCSc1nnc(Sc2nnnn2-c2ccccc2)s1`, 14.2 µM; in that of `CC(C)CCn1c(Sc2nc3ccccc3o2)nc2c1c(=O)[nH]c(=O)n2C`, 5.08 µM.
The figure for `O=C(CCl)Nc1cn(-c2ccccc2)nc1-c1ccccc1` is 7.77 µM; for `Cn1c(=O)c([N+](=O)[O-])c(-n2ccnc2)c2ccccc21` it is > 38 µM (inactive); for `COc1cc(C2(c3ccc(O)c(OC)c3)C(=O)Nc3c(C)cc(Br)cc32)ccc1O` it is 9.32 µM.
The figure for `S=C(Nc1ccc2nsnc2c1)N1CCCCCC1` is 9.37 µM; for `CC(=O)Nc1cccc(NC(=O)CSc2ncc(C(=O)Nc3ccccc3)c(=O)n2C)c1` it is > 38 µM (inactive); for `CCC(C)[C@@H](NC(=O)OC(C)(C)C)c1nnc(S(=O)(=O)Cc2cccc(C)c2)o1` (stereo partly drawn) it is > 38 µM (inactive).
For `Cc1nn(-c2cccc(Cl)c2)c2c1C(c1cccnc1)C(C#N)=C(N)O2` (stereo not drawn), the AC50 is 34.6 µM.
Turning to `COc1ccc(OC)c(C(c2c(C)[nH][nH]c2=O)c2c(C)[nH][nH]c2=O)c1`, the AC50 was 13.5 µM.
In the case of `CCC(C)NC(=O)c1c(N)n(Cc2ccc3c(c2)OCO3)c2nc3ccccc3nc12` (stereo not drawn) it was 26.7 µM; in that of `O=C1C(Cl)=C(N2CCC(C(=O)O)CC2)C(=O)c2ccccc21`, 1.41 µM.
As to `CC(=O)N(C)C1=C(N2CCOCC2)C(=O)c2ccccc2C1=O`, the AC50 was 15.7 µM.
In the case of `Cc1[nH]n(-c2ccccc2)c(=O)c1/C=C1/C=c2ccccc2=N1` it was > 38 µM (inactive); in that of `O=C(CCl)Nc1c2c(nn1-c1ccccc1)CSC2`, 29.2 µM.
On to `CCOc1cc(/C=C2\C(=O)N(CCC#N)N=C2C)ccc1OCC(N)=O`, for which the AC50 is 12.6 µM.
